Assay [1] has as its system Rattus norvegicus. Description: In vivo toxicity […] at intravenous dosage of 10.0 mg/kg/day in rat. Format: functional.
Assay [2] relates to Rattus norvegicus. Nature of the assay: Anti-Pneumocystis carinii Pneumonia activity at intravenous dosage of 10.0 mg/kg/day in rat. Format: functional.

Each structure is given as a SMILES string.

As for `C(=C\COc1ccc(C2=NCCN2)cc1)/COc1ccc(C2=NCCN2)cc1`, in assay [1], the Toxicity was determined as 0. This molecule also returned a Control in assay [2] of 1.5%.
In assay [1], `N=C(N)c1ccc(OC/C=C/COc2ccc(C(=N)N)cc2)cc1` showed a Toxicity of 0. Further, in assay [2], the Control worked out at 0.8%.
On the same counts, the results for `N=C(N)c1ccc(OC/C=C\COc2ccc(C(=N)N)cc2)cc1` are 0 and 1.3%.
For `C(=C/COc1ccc(C2=NCCN2)cc1)/COc1ccc(C2=NCCN2)cc1` the same measures were 0 and 1.4%.
The molecule `N=C(N)c1ccc(OCCCCCOc2ccc(C(=N)N)cc2)cc1` [PENTAMIDINE] came in with a Toxicity in assay [1] of 2. The Control in assay [2] is listed as 4.5%.

These data come from ChEMBL document CHEMBL1152060, “Pentamidine congeners 1: Synthesis of Cis- and Trans-butamidine analogues as anti-Pneumocystis carinii pneumonia agents” (1993).
